Columns and labels:
Ghsr1α/Drd1 complex = molecular target: T1, Ghsr1α/Drd1 complex (Mus musculus, UniProt Q61616+Q99P50); experiment: Duolink PLA of Ghsr1α/Drd1 complex in cultured hippocampal neurons; assay type: cell-based; conditions: oligomeric Aβ42 1 μM, 24 hours; 1.5 μM MK0677, 2 μM SKF81297, or in combination
T1 construct: endogenous in cells; host or cells: primary mouse hippocampal neurons (P0-1, DIV14)
Excerpt: (§1) Duolink In Situ Proximity Ligation Assay (PLA). […] PLA analysis was referred to previous report (66 67). NIH Image J was used for PLA signal quantification.
(§2) Agonist treatment on primary cultured neurons. […] The exposure was followed by immunostaining to examine the effects of Ghsr1α/Drd1 co-activation on Aβ induced synaptic loss or Ghsr1α/Drd1, Aβ/Ghsr1α interaction as described in previous sections.

Aβ/Ghsr1α complex = molecular target: T2, Aβ/Ghsr1α complex (Mus musculus, UniProt Q99P50); experiment: Duolink PLA of Aβ/Ghsr1α complex in cultured hippocampal neurons; assay type: cell-based; conditions: oligomeric Aβ42 1 μM, 24 hours; 1.5 μM MK0677, 2 μM SKF81297, or in combination
T2 construct: endogenous in cells; host or cells: primary mouse hippocampal neurons; Aβ42 peptide purchased (GenicBio, A-43-T-1000)
Excerpt: as §1, §2

[1] = Mouse body weight during treatment; assay type: in vivo; conditions: MK0677 1.5 mg/kg, daily i.p.
Excerpt: Agonist treatment on mice.
(§3) Mice and agonist treatment.

5×FAD mice [2] = experiment: Survival of mice under daily MK0677 i.p. injection; assay type: in vivo, mouse; conditions: 30 days
Procedure: To determine whether MK0677 mitigates hippocampal lesions in 5×FAD mice, the inventor first sought to determine the optimal dose of MK0677. 5×FAD mice at 3 months old received either saline or MK0677 at 1.5 or 3 mg/kg via daily i.p. injection for 30 days (FIGS. 12a). 5×FAD mice at 3 months old have little to no hippocampal lesions and indiscernible behavioral change, both of which become prominent at 4 months of age (the endpoint of treatment). The doses of MK0677 were chosen based on previous studies. […] The inventor therefore selected 5×FAD mice that received the 1.5 mg/kg dose of MK0677 for biological response assays. Next, he examined the impact of MK0677 treatment on hippocampal Aβ deposition in 5×FAD mice. To this end, immunofluorescent staining using the specific antibody against Aβ was performed to visualize Aβ plaques.
as §3

5×FAD mice [3] = conditions: recent study, higher dose of MK0677; cited from earlier work

T2 sequence (Q99P50 whole entry): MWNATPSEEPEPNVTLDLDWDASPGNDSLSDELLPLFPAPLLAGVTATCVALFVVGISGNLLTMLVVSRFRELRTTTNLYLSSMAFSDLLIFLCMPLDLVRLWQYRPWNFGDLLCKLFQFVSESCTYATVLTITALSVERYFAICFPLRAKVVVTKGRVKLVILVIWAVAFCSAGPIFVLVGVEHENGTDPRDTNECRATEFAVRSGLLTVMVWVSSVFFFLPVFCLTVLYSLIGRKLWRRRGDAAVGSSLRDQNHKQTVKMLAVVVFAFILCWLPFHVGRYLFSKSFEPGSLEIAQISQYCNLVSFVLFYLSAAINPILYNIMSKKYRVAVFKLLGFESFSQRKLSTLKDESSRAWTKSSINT
T2 sequence (Q61616 whole entry, further chain): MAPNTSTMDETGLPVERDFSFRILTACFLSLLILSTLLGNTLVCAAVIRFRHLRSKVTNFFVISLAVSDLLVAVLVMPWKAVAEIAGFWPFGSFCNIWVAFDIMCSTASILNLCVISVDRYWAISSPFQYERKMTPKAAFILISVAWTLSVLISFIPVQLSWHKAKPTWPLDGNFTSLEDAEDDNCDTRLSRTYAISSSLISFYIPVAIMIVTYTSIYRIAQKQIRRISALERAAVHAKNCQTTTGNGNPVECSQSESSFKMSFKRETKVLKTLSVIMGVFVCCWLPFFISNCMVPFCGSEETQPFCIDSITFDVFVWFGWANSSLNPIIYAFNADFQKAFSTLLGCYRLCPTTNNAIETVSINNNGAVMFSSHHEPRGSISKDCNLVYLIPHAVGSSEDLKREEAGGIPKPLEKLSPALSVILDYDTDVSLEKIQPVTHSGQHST
T1 sequence (Q99P50 whole entry): as the sequence (Q99P50 whole entry) above
T1 sequence (Q61616 whole entry): as the sequence (Q61616 whole entry, further chain) above

CC(C)(N)C(=O)N[C@H](COCc1ccccc1)C(=O)N1CCC2(CC1)CN(S(C)(=O)=O)c1ccccc12 [MK0677]
Ghsr1α/Drd1 complex formation (Ghsr1α/Drd1 complex): not the agonists alone
Aβ/Ghsr1α complex formation (Aβ/Ghsr1α complex): not MK0677 or SKF81297 alone
mouse body weight [1]: did not affect mouse body weight
5×FAD mouse survival vs saline (5×FAD mice [2]; MK0677 1.5 mg/kg): little effect
mortality of 5×FAD mice (5×FAD mice [2]; MK0677 3 mg/kg): significantly increased the mortality
neocortical Aβ plaques in young 5×FAD mice (5×FAD mice [3]): lowered neocortical Aβ plaques
